Reference: paper PMC8010047, “New insights into the molecular mechanism behind mannitol and erythritol fructosylation by β-fructofuranosidase from Schwanniomyces occidentalis” (Scientific Reports, 2021)

Assays:
[1] = biological target: T1, β-fructofuranosidase from Schwanniomyces occidentalis (Ffase) (Schwanniomyces occidentalis, UniProt E5D0X5, D50A); test: X-ray crystallography (soaking); format: binding
T1 construct: expressed in Saccharomyces cerevisiae (SUC2-disrupted), secreted, DEAE-purified; homodimer of 160 kDa, 535 residues per subunit; GH32; deglycosylated for crystals

[2] = biological target: T1, β-fructofuranosidase from Schwanniomyces occidentalis (Ffase); test: X-ray crystallography; format: binding; conditions: crystals incubated with fructosyl-mannitol, sucrose from traces in the product; deglycosylated inactive mutant; active site subsites -1/+1; paper deposits 6S2B and 6S1T without assigning them

T1 sequence (E5D0X5 entry or part of it D50A): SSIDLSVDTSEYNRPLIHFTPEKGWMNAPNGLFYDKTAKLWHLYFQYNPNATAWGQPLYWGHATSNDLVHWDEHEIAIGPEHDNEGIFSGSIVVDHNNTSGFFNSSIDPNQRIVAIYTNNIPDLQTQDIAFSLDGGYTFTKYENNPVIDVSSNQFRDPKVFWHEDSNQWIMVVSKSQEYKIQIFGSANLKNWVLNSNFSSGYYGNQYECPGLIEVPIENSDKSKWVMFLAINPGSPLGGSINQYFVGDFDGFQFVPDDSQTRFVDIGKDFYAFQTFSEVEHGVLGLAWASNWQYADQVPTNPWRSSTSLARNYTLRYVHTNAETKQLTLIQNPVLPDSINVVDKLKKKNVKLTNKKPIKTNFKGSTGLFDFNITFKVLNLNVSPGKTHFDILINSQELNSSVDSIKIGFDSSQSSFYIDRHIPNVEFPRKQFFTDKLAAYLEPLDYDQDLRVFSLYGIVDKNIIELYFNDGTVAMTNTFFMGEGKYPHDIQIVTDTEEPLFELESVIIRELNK

## OC[C@@]1(O)OC[C@@H](O)[C@@H](O)[C@@H]1O [β-fructose]
[1]; soaked with β-fructose plus mannitol or erythritol, active site, structure not deposited
  X-ray crystallography (soaking): only fructose was bound at the active site in both experiments

## OC[C@H]1O[C@@](CO)(O[C@H]2O[C@H](CO)[C@@H](O)[C@H](O)[C@H]2O)[C@@H](O)[C@@H]1O [sucrose]
[2]
  X-ray crystallography: only sucrose was observed in crystals grown in the presence of fructosyl-mannitol

## OCC(O)C(O)CO[C@]1(CO)O[C@H](CO)[C@@H](O)[C@@H]1O (stereo partly drawn) [fructosyl-erythritol, 1/4-O-β-D-fructofuranosyl-D-erythritol]
[1]; 100 mM ligand soak, pH 6.0, deglycosylated inactive mutant, active site subsites -1/+1, 1.88 Å, paper deposits 6S2B and 6S1T without assigning them
  X-ray crystallography (soaking): The formation of Ffase-D50A/fructosyl-erythritol complex was clearly detected
